According to article PMC12446476 (Nature Communications, 2025):
“And” between values parts separate entries of the source, which are not always exact repeats. Equal entries are not always repeated.

System: N. gonorrhoeae
Test: N. gonorrhoeae murine vaginal infection model, efficacy
Type: in vivo, mouse
Details: BID
Protocol: The N. gonorrhoeae female mouse vaginal model[45] was performed in accordance with the Guide for Care and Use of Laboratory Animals[75]. Animal rooms were maintained at a temperature range of 20–24 °C and humidity between 30% and 70%, with 12 h light/dark cycles. Ovariectomized BALB/c female mice (5–6 weeks, BioLASCO Taiwan Co., Ltd.) were treated with estradiol (0.23 mg/mouse) two days before infection and on the day of infection. Ovariectomized mice were used to avoid staging mice before treating them with estradiol. Beginning two days prior to infection and maintained until the end of the study, animals were treated twice daily with streptomycin (1.2 mg/mouse) and vancomycin (0.6 mg/mouse) each via intraperitoneal (IP) injection and received trimethoprim sulfate in the drinking water (0.4 mg/mL) to control vaginal microflora. Animals were anesthetised with pentobarbital (80 mg/kg), the vagina was rinsed with 50 mM HEPES (pH 7.4), and then inoculated with N. gonorrhoeae in pre-warmed PBS (0.02 mL/mouse containing ~1 × 10^5 CFU).
Control groups received either a single IP injection of ceftriaxone or 5% dextrose (vehicle) twice daily. Animals were sacrificed via CO2 asphyxiation at either 2 h (baseline), 26 and/or 50 h post-infection. Vaginal lavage was performed twice with 200 µL GC broth containing 0.05% saponin to recover bacteria. Bacterial burden in the lavage fluids was determined by performing 10-fold serial dilutions and plating on chocolate agar plates. Four strains were assessed using the model; ATCC 700825 is naturally streptomycin-resistant, whereas AR Bank0179-15, AR Bank0181-17 and WHO X-07 are derivatives of AR Bank0179, AR Bank0181 and WHO X, respectively, that were engineered for streptomycin resistance for use in the model.

[1] = Data 4, N. gonorrhoeae WHO X-07, ovariectomized BALB/c, 20 mg/kg PO, 24h, individual animals, 20 mg/kg
[2] = Data 4, N. gonorrhoeae WHO X-07, ovariectomized BALB/c, 20 mg/kg PO, 48h, individual animals, 20 mg/kg
[3] = Data 4, N. gonorrhoeae WHO X-07, ovariectomized BALB/c, 30 mg/kg PO, 24h, individual animals, 30 mg/kg
[4] = Data 4, N. gonorrhoeae WHO X-07, ovariectomized BALB/c, 30 mg/kg PO, 48h, individual animals, 30 mg/kg
[5] = Data 4, N. gonorrhoeae WHO X-07, ovariectomized BALB/c, 40 mg/kg PO, 24h, individual animals, 40 mg/kg
[6] = Data 4, N. gonorrhoeae WHO X-07, ovariectomized BALB/c, 40 mg/kg PO, 48h, individual animals, 40 mg/kg
[7] = Data 4, N. gonorrhoeae WHO X-07, ovariectomized BALB/c, 80 mg/kg PO, 24h, individual animals, 80 mg/kg
[8] = Data 4, N. gonorrhoeae WHO X-07, ovariectomized BALB/c, 80 mg/kg PO, 48h, individual animals, 80 mg/kg
[9] = Data 4, N. gonorrhoeae WHO X-07, ovariectomized BALB/c, 160 mg/kg PO, 24h, individual animals, 160 mg/kg
[10] = Data 4, N. gonorrhoeae WHO X-07, ovariectomized BALB/c, 160 mg/kg PO, 48h, individual animals
[11] = N. gonorrhoeae AR Bank0179-15, vaginal lavage, individual mice, Debio 1453P 10 mg/kg PO, 24h
[12] = N. gonorrhoeae AR Bank0179-15, vaginal lavage, individual mice, Debio 1453P 10 mg/kg PO, 48h
[13] = N. gonorrhoeae AR Bank0179-15, vaginal lavage, individual mice, Debio 1453P 20 mg/kg PO, 24h

Question: With `Cc1c(CN(C)C(=O)/C=C/c2cnc3c(c2)N[C@H](C)[C@H](OP(=O)([O-])[O-])C(=O)N3)oc2ccccc12.[Na+].[Na+]` [Debio 1453 P] as the compound, how does the CFU/mL lavage fluid [1] read?
Answer: 780000 CFU/mL lavage fluid and 510000 CFU/mL lavage fluid and 2110000 CFU/mL lavage fluid and 820000 CFU/mL lavage fluid and 1010000 CFU/mL lavage fluid

Question: What about the “Log10(CFU/mL lavage fluid)” value [1] of the same compound?
Answer: 5.89 Log10(CFU/mL lavage fluid) and 5.71 Log10(CFU/mL lavage fluid) and 6.32 Log10(CFU/mL lavage fluid) and 5.91 Log10(CFU/mL lavage fluid) and 6.00 Log10(CFU/mL lavage fluid)

Question: And the CFU/mL lavage fluid [2]?
Answer: 2660000 CFU/mL lavage fluid and 620000 CFU/mL lavage fluid and 3200000 CFU/mL lavage fluid and 920000 CFU/mL lavage fluid and 870000 CFU/mL lavage fluid

Question: And the “Log10(CFU/mL lavage fluid)” value [2]?
Answer: 6.42 Log10(CFU/mL lavage fluid) and 5.79 Log10(CFU/mL lavage fluid) and 6.51 Log10(CFU/mL lavage fluid) and 5.96 Log10(CFU/mL lavage fluid) and 5.94 Log10(CFU/mL lavage fluid)

Question: What about the CFU/mL lavage fluid [3] of the same compound?
Answer: 740000 CFU/mL lavage fluid and 760000 CFU/mL lavage fluid and 840000 CFU/mL lavage fluid and 440000 CFU/mL lavage fluid and 700000 CFU/mL lavage fluid

Question: And the “Log10(CFU/mL lavage fluid)” value [3]?
Answer: 5.87 Log10(CFU/mL lavage fluid) and 5.88 Log10(CFU/mL lavage fluid) and 5.92 Log10(CFU/mL lavage fluid) and 5.64 Log10(CFU/mL lavage fluid) and 5.85 Log10(CFU/mL lavage fluid)

Question: What about the CFU/mL lavage fluid [4] of the same compound?
Answer: 790000 CFU/mL lavage fluid and 1090000 CFU/mL lavage fluid and 46000 CFU/mL lavage fluid and 550000 CFU/mL lavage fluid and 1250000 CFU/mL lavage fluid

Question: And the “Log10(CFU/mL lavage fluid)” value [4]?
Answer: 5.90 Log10(CFU/mL lavage fluid) and 6.04 Log10(CFU/mL lavage fluid) and 4.66 Log10(CFU/mL lavage fluid) and 5.74 Log10(CFU/mL lavage fluid) and 6.10 Log10(CFU/mL lavage fluid)

Question: What about the CFU/mL lavage fluid [5] of the same compound?
Answer: 2240000 CFU/mL lavage fluid and 380000 CFU/mL lavage fluid and 92000 CFU/mL lavage fluid and 77000 CFU/mL lavage fluid and 610000 CFU/mL lavage fluid

Question: And the “Log10(CFU/mL lavage fluid)” value [5]?
Answer: 6.35 Log10(CFU/mL lavage fluid) and 5.58 Log10(CFU/mL lavage fluid) and 4.96 Log10(CFU/mL lavage fluid) and 4.89 Log10(CFU/mL lavage fluid) and 5.79 Log10(CFU/mL lavage fluid)

Question: What about the CFU/mL lavage fluid [6] of the same compound?
Answer: 123000 CFU/mL lavage fluid and 55000 CFU/mL lavage fluid and 380000 CFU/mL lavage fluid and 85000 CFU/mL lavage fluid and 1000000 CFU/mL lavage fluid

Question: And the “Log10(CFU/mL lavage fluid)” value [6]?
Answer: 5.09 Log10(CFU/mL lavage fluid) and 4.74 Log10(CFU/mL lavage fluid) and 5.58 Log10(CFU/mL lavage fluid) and 4.93 Log10(CFU/mL lavage fluid) and 6.00 Log10(CFU/mL lavage fluid)

Question: What about the CFU/mL lavage fluid [7] of the same compound?
Answer: 5 CFU/mL lavage fluid and 295 CFU/mL lavage fluid and 380 CFU/mL lavage fluid and 10 CFU/mL lavage fluid

Question: And the “Log10(CFU/mL lavage fluid)” value [7]?
Answer: 0.70 Log10(CFU/mL lavage fluid) and 2.47 Log10(CFU/mL lavage fluid) and 2.58 Log10(CFU/mL lavage fluid) and 1.00 Log10(CFU/mL lavage fluid)

Question: What about the CFU/mL lavage fluid [8] of the same compound?
Answer: 55 CFU/mL lavage fluid and <5 CFU/mL lavage fluid and 5 CFU/mL lavage fluid

Question: And the “Log10(CFU/mL lavage fluid)” value [8]?
Answer: 1.74 Log10(CFU/mL lavage fluid) and <0.70 Log10(CFU/mL lavage fluid) and 0.70 Log10(CFU/mL lavage fluid)

Question: What about the CFU/mL lavage fluid [9] of the same compound?
Answer: <5 CFU/mL lavage fluid and 30 CFU/mL lavage fluid and 5 CFU/mL lavage fluid

Question: And the “Log10(CFU/mL lavage fluid)” value [9]?
Answer: <0.70 Log10(CFU/mL lavage fluid) and 1.48 Log10(CFU/mL lavage fluid) and 0.70 Log10(CFU/mL lavage fluid)

Question: What about the CFU/mL lavage fluid [10] of the same compound?
Answer: <5 CFU/mL lavage fluid

Question: And the “Log10(CFU/mL lavage fluid)” value [10]?
Answer: <0.70 Log10(CFU/mL lavage fluid)

Question: What about the CFU/mL lavage fluid [11] of the same compound?
Answer: 390000 CFU/mL and 85000 CFU/mL and 46000 CFU/mL and 59000 CFU/mL and 77000 CFU/mL

Question: What about the “Log10(CFU/mL lavage fluid)” value [11] of the same compound?
Answer: 5.59 Log10(CFU/mL lavage fluid) and 4.93 Log10(CFU/mL lavage fluid) and 4.66 Log10(CFU/mL lavage fluid) and 4.77 Log10(CFU/mL lavage fluid) and 4.89 Log10(CFU/mL lavage fluid)

Question: And the CFU/mL lavage fluid [12]?
Answer: 64000 CFU/mL and 520000 CFU/mL and 61000 CFU/mL and 80000 CFU/mL and 103000 CFU/mL

Question: And the “Log10(CFU/mL lavage fluid)” value [12]?
Answer: 4.81 Log10(CFU/mL lavage fluid) and 5.72 Log10(CFU/mL lavage fluid) and 4.79 Log10(CFU/mL lavage fluid) and 4.9 Log10(CFU/mL lavage fluid) and 5.01 Log10(CFU/mL lavage fluid)

Question: What about the CFU/mL lavage fluid [13] of the same compound?
Answer: 47000 CFU/mL and 64000 CFU/mL and 4900 CFU/mL and 1450 CFU/mL and 20400 CFU/mL

Question: And the “Log10(CFU/mL lavage fluid)” value [13]?
Answer: 4.67 Log10(CFU/mL lavage fluid) and 4.81 Log10(CFU/mL lavage fluid) and 3.69 Log10(CFU/mL lavage fluid) and 3.16 Log10(CFU/mL lavage fluid) and 4.31 Log10(CFU/mL lavage fluid)
